Experiment: mn = molality of the nth substance listed, in mol/kg
Conditions: Liquid, Vibrating tube method

[Ca+2].[Cl-].[Cl-] [calcium chloride] + CCO
Conditions | mass density [kg/m3]
298.15 K, 210 kPa, m1 = 1.55 | 901.58
298.15 K, 260 kPa, m1 = 1.266 | 881.44
298.15 K, 280 kPa, m1 = 0.1743 | 800.14
298.15 K, 480 kPa, m1 = 0.09327 | 793.4
298.15 K, 670 kPa, m1 = 0.9896 | 861.73
298.15 K, 1020 kPa, m1 = 0.4379 | 820.65
298.15 K, 1170 kPa, m1 = 0.6899 | 839.86
298.15 K, 5010 kPa, m1 = 0.6899 | 843.06
298.15 K, 5020 kPa, m1 = 1.55 | 905.41
298.15 K, 5030 kPa, m1 = 0.4379 | 824.03
298.15 K, 5060 kPa, m1 = 0.09327 | 797.34
298.15 K, 5060 kPa, m1 = 1.266 | 885.32
298.15 K, 6330 kPa, m1 = 0.9896 | 866.36
298.15 K, 6580 kPa, m1 = 0.1743 | 804.98
298.15 K, 10030 kPa, m1 = 0.09327 | 801.45
298.15 K, 10410 kPa, m1 = 1.55 | 909.48
298.15 K, 10450 kPa, m1 = 0.4379 | 828.43
298.15 K, 10830 kPa, m1 = 0.9896 | 869.87
298.15 K, 10850 kPa, m1 = 1.266 | 889.78
298.15 K, 11050 kPa, m1 = 0.6899 | 847.88
298.15 K, 11330 kPa, m1 = 0.1743 | 808.85
298.15 K, 14860 kPa, m1 = 1.266 | 892.71
298.15 K, 15090 kPa, m1 = 0.9896 | 873.05
298.15 K, 15120 kPa, m1 = 0.6899 | 850.99
298.15 K, 15240 kPa, m1 = 1.55 | 912.94
298.15 K, 15470 kPa, m1 = 0.09327 | 805.77
298.15 K, 15480 kPa, m1 = 0.4379 | 832.33
298.15 K, 15720 kPa, m1 = 0.1743 | 812.29
298.15 K, 20020 kPa, m1 = 0.9896 | 876.57
298.15 K, 20080 kPa, m1 = 1.266 | 896.35
298.15 K, 20130 kPa, m1 = 0.6899 | 854.64
298.15 K, 20260 kPa, m1 = 1.55 | 916.34
298.15 K, 20460 kPa, m1 = 0.4379 | 836.02
298.15 K, 20490 kPa, m1 = 0.1743 | 815.89
298.15 K, 20640 kPa, m1 = 0.09327 | 809.69
298.15 K, 25010 kPa, m1 = 1.55 | 919.38
298.15 K, 25130 kPa, m1 = 0.9896 | 880.03
298.15 K, 25310 kPa, m1 = 0.6899 | 858.24
298.15 K, 25390 kPa, m1 = 0.09327 | 813.15
298.15 K, 25410 kPa, m1 = 1.266 | 899.86
298.15 K, 25750 kPa, m1 = 0.4379 | 839.75
298.15 K, 25820 kPa, m1 = 0.1743 | 819.73
298.15 K, 30060 kPa, m1 = 1.266 | 902.74
298.15 K, 30110 kPa, m1 = 0.9896 | 883.22
298.15 K, 30120 kPa, m1 = 0.6899 | 861.41
298.15 K, 30190 kPa, m1 = 0.09327 | 816.48
298.15 K, 30420 kPa, m1 = 1.55 | 922.62
298.15 K, 30640 kPa, m1 = 0.4379 | 843.03
298.15 K, 31460 kPa, m1 = 0.1743 | 823.58
298.15 K, 34210 kPa, m1 = 0.6899 | 863.97
298.15 K, 35050 kPa, m1 = 1.55 | 925.22
298.15 K, 35340 kPa, m1 = 0.1743 | 826.11
298.15 K, 35510 kPa, m1 = 0.9896 | 886.47
298.15 K, 35640 kPa, m1 = 0.09327 | 820.09
298.15 K, 35830 kPa, m1 = 0.4379 | 846.33
298.15 K, 35910 kPa, m1 = 1.266 | 906.14
298.15 K, 39770 kPa, m1 = 0.6899 | 867.27
298.15 K, 39860 kPa, m1 = 0.9896 | 888.93
298.15 K, 39920 kPa, m1 = 0.09327 | 822.78
298.15 K, 39960 kPa, m1 = 1.55 | 927.8
298.15 K, 39970 kPa, m1 = 0.4379 | 848.83
298.15 K, 39980 kPa, m1 = 1.266 | 908.34
298.15 K, 40180 kPa, m1 = 0.1743 | 829.13
323.15 K, 150 kPa, m1 = 0.09327 | 771.32
323.15 K, 240 kPa, m1 = 0.1743 | 777.83
323.15 K, 310 kPa, m1 = 1.266 | 857.3
323.15 K, 450 kPa, m1 = 0.4379 | 798.42
323.15 K, 520 kPa, m1 = 1.55 | 876.88
323.15 K, 1060 kPa, m1 = 0.6899 | 817.18
323.15 K, 1570 kPa, m1 = 0.9896 | 839.21
323.15 K, 4980 kPa, m1 = 0.4379 | 802.82
323.15 K, 5060 kPa, m1 = 0.1743 | 782.74
323.15 K, 5070 kPa, m1 = 1.266 | 861.31
323.15 K, 5120 kPa, m1 = 1.55 | 881.08
323.15 K, 5160 kPa, m1 = 0.9896 | 842.61
323.15 K, 5240 kPa, m1 = 0.09327 | 776.5
323.15 K, 5300 kPa, m1 = 0.6899 | 821.26
323.15 K, 9780 kPa, m1 = 0.4379 | 807.29
323.15 K, 10060 kPa, m1 = 1.266 | 865.4
323.15 K, 10180 kPa, m1 = 0.6899 | 825.76
323.15 K, 10340 kPa, m1 = 0.09327 | 781.44
323.15 K, 10480 kPa, m1 = 0.1743 | 787.98
323.15 K, 10740 kPa, m1 = 1.55 | 885.92
323.15 K, 10890 kPa, m1 = 0.9896 | 847.78
323.15 K, 15020 kPa, m1 = 1.55 | 889.39
323.15 K, 15060 kPa, m1 = 0.4379 | 811.96
323.15 K, 15370 kPa, m1 = 0.6899 | 830.3
323.15 K, 15410 kPa, m1 = 1.266 | 869.66
323.15 K, 15420 kPa, m1 = 0.9896 | 851.64
323.15 K, 15620 kPa, m1 = 0.1743 | 792.67
323.15 K, 15780 kPa, m1 = 0.09327 | 786.43
323.15 K, 19980 kPa, m1 = 1.266 | 873.2
323.15 K, 20040 kPa, m1 = 0.4379 | 816.13
323.15 K, 20060 kPa, m1 = 0.9896 | 855.4
323.15 K, 20420 kPa, m1 = 1.55 | 893.5
323.15 K, 20640 kPa, m1 = 0.1743 | 796.99
323.15 K, 20640 kPa, m1 = 0.6899 | 834.66
323.15 K, 20980 kPa, m1 = 0.09327 | 790.93
323.15 K, 24860 kPa, m1 = 1.266 | 876.87
323.15 K, 24870 kPa, m1 = 0.4379 | 819.96
323.15 K, 25080 kPa, m1 = 0.9896 | 859.23
323.15 K, 25310 kPa, m1 = 1.55 | 896.97
323.15 K, 25390 kPa, m1 = 0.6899 | 838.36
323.15 K, 25680 kPa, m1 = 0.09327 | 794.77
323.15 K, 25870 kPa, m1 = 0.1743 | 801.22
323.15 K, 30020 kPa, m1 = 0.4379 | 823.82
323.15 K, 30070 kPa, m1 = 1.266 | 880.67
323.15 K, 30140 kPa, m1 = 1.55 | 900.16
323.15 K, 30180 kPa, m1 = 0.6899 | 841.89
323.15 K, 30380 kPa, m1 = 0.1743 | 804.64
323.15 K, 30390 kPa, m1 = 0.09327 | 798.4
323.15 K, 30450 kPa, m1 = 0.9896 | 863.05
323.15 K, 35150 kPa, m1 = 0.4379 | 827.42
323.15 K, 35160 kPa, m1 = 1.266 | 884.27
323.15 K, 35210 kPa, m1 = 0.9896 | 866.21
323.15 K, 35620 kPa, m1 = 1.55 | 903.49
323.15 K, 35760 kPa, m1 = 0.6899 | 845.73
323.15 K, 35870 kPa, m1 = 0.09327 | 802.35
323.15 K, 35920 kPa, m1 = 0.1743 | 808.56
323.15 K, 39760 kPa, m1 = 0.4379 | 830.46
323.15 K, 39860 kPa, m1 = 0.09327 | 805.04
323.15 K, 39870 kPa, m1 = 1.266 | 887.49
323.15 K, 39940 kPa, m1 = 0.1743 | 811.21
323.15 K, 39940 kPa, m1 = 0.6899 | 848.42
323.15 K, 39960 kPa, m1 = 0.9896 | 869.15
323.15 K, 39980 kPa, m1 = 1.55 | 905.92
348.15 K, 270 kPa, m1 = 1.266 | 833.32
348.15 K, 310 kPa, m1 = 1.55 | 852.87
348.15 K, 580 kPa, m1 = 0.9896 | 814.32
348.15 K, 620 kPa, m1 = 0.4379 | 774.92
348.15 K, 750 kPa, m1 = 0.09327 | 748.39
348.15 K, 750 kPa, m1 = 0.6899 | 792.97
348.15 K, 890 kPa, m1 = 0.1743 | 755.18
348.15 K, 5060 kPa, m1 = 0.9896 | 819.3
348.15 K, 5060 kPa, m1 = 1.266 | 837.99
348.15 K, 5080 kPa, m1 = 0.6899 | 797.87
348.15 K, 5090 kPa, m1 = 0.1743 | 760.16
348.15 K, 5130 kPa, m1 = 0.4379 | 780.06
348.15 K, 5210 kPa, m1 = 1.55 | 858.12
348.15 K, 5620 kPa, m1 = 0.09327 | 754.25
348.15 K, 10160 kPa, m1 = 1.55 | 863.08
348.15 K, 10240 kPa, m1 = 0.4379 | 785.57
348.15 K, 10310 kPa, m1 = 0.9896 | 824.81
348.15 K, 10410 kPa, m1 = 0.6899 | 803.58
348.15 K, 10450 kPa, m1 = 1.266 | 843.06
348.15 K, 10480 kPa, m1 = 0.1743 | 766.21
348.15 K, 10820 kPa, m1 = 0.09327 | 760.15
348.15 K, 14890 kPa, m1 = 0.6899 | 808.11
348.15 K, 15210 kPa, m1 = 0.9896 | 829.63
348.15 K, 15310 kPa, m1 = 0.4379 | 790.73
348.15 K, 15380 kPa, m1 = 0.09327 | 765.02
348.15 K, 15680 kPa, m1 = 1.55 | 868.22
348.15 K, 15760 kPa, m1 = 0.1743 | 771.77
348.15 K, 15840 kPa, m1 = 1.266 | 847.95
348.15 K, 19980 kPa, m1 = 1.266 | 851.59
348.15 K, 20060 kPa, m1 = 0.6899 | 813.01
348.15 K, 20430 kPa, m1 = 0.09327 | 770.09
